From ChEMBL document CHEMBL3885861, “Open TG-GATES”

Species on record: Rattus norvegicus
Test: Open TG-GATES - Regimen: Single
Assay type: toxicity, organism-based, Sprague-Dawley
Parameters: regimen Single, gender Male, age 6 weeks
Conditions: in vivo, po, 8 mg/kg, route gavage, dose level Low; for APTT / Bas / Eos / Fbg / Hb / Ht / Lym / MCH / MCHC / MCV / Mono / Neu / PT / Plat / RBC / Ret / WBC: tissue Blood; for KIDNEY_L / KIDNEY_R / KIDNEY_TOTAL: tissue Kidney; for LIVER: tissue Liver; for A/G / ALP / ALT / AST / BUN / CRE / Ca / Cl / DBIL / GLC / IP / K / LDH / Na / PL / RALB / TBIL / TC / TG / TP / gamma-GTP: tissue Plasma

Compound: NC1=NC(=O)C(c2ccccc2)O1 (stereo unspecified) [PEMOLINE]
- TERMINAL_BW (9 h): 209.7 g
- APTT (9 h): 15.9 s
- Bas (9 h): 0%
- Eos (9 h): 1%
- Fbg (9 h): 319.2 mg/dL
- Hb (9 h): 13.3 g/dL
- Ht (9 h): 39.2%
- Lym (9 h): 77.8%
- MCH (9 h): 21.9 pg
- MCHC (9 h): 34%
- MCV (9 h): 64.2 fL
- Mono (9 h): 2.8%
- Neu (9 h): 18%
- PT (9 h): 13.2 s
- Plat (9 h): 117.5 x10_4/uL
- RBC (9 h): 611 x10_4/ul
- Ret (9 h): 9.2%
- WBC (9 h): 91 x10_2/uL
- KIDNEY_L (9 h): 0.9 g
- KIDNEY_R (9 h): 0.9 g
- KIDNEY_TOTAL (9 h): 1.8 g
- LIVER (9 h): 7.7 g
- A/G (9 h): 1
- ALP (9 h): 1372.4 IU/L
- ALT (9 h): 40.6 IU/L
- AST (9 h): 74.2 IU/L
- BUN (9 h): 8.2 mg/dL
- CRE (9 h): 0.2 mg/dL
- Ca (9 h): 10.4 mg/dL
- Cl (9 h): 106 meq/L
- DBIL (9 h): 0.012 mg/dL
- GLC (9 h): 172.2 mg/dL
- IP (9 h): 9.7 mg/dL
- K (9 h): 3.9 meq/L
- LDH (9 h): 57.4 IU/L
- Na (9 h): 140.4 meq/L
- PL (9 h): 122.4 mg/dL
- RALB (9 h): 2.7 g/dL
- TBIL (9 h): 0.044 mg/dL
- TC (9 h): 78.4 mg/dL
- TG (9 h): 28.4 mg/dL
- TP (9 h): 5.3 g/dL
- gamma-GTP (9 h): 1.4 IU/L
- TERMINAL_BW (24 h): 216.4 g
- APTT (24 h): 16.8 s
- Bas (24 h): 0%
- Eos (24 h): 0.8%
- Fbg (24 h): 274.6 mg/dL
- Hb (24 h): 13 g/dL
- Ht (24 h): 38.4%
- Lym (24 h): 77.8%
- MCH (24 h): 22.1 pg
- MCHC (24 h): 33.9%
- MCV (24 h): 65.2 fL
- Mono (24 h): 3.4%
- Neu (24 h): 17.4%
- PT (24 h): 12.9 s
- Plat (24 h): 118.4 x10_4/uL
- RBC (24 h): 590.2 x10_4/ul
- Ret (24 h): 8.1%
- WBC (24 h): 88.3 x10_2/uL
- KIDNEY_L (24 h): 0.9 g
- KIDNEY_R (24 h): 0.9 g
- KIDNEY_TOTAL (24 h): 1.9 g
- LIVER (24 h): 10 g
- A/G (24 h): 1
- ALP (24 h): 1622.2 IU/L
- ALT (24 h): 43 IU/L
- AST (24 h): 70.2 IU/L
- BUN (24 h): 15.2 mg/dL
- CRE (24 h): 0.2 mg/dL
- Ca (24 h): 11 mg/dL
- Cl (24 h): 105 meq/L
- DBIL (24 h): 0.018 mg/dL
- GLC (24 h): 177.8 mg/dL
- IP (24 h): 8.2 mg/dL
- K (24 h): 3.9 meq/L
- LDH (24 h): 61.8 IU/L
- Na (24 h): 142.2 meq/L
- PL (24 h): 133.8 mg/dL
- RALB (24 h): 2.8 g/dL
- TBIL (24 h): 0.03 mg/dL
- TC (24 h): 76 mg/dL
- TG (24 h): 69.4 mg/dL
- TP (24 h): 5.6 g/dL
- gamma-GTP (24 h): 1 IU/L
